According to ChEMBL document CHEMBL1949529, “Substrate specificity of acetoxy derivatives of coumarins and quinolones towards Calreticulin mediated transacetylation: investigations on antiplatelet function” (Bioorg Med Chem, 2012):
pIC50: −log10 of the molar value. Active and inactive are the calls of the source. The calls are words filed in the database; no cut-off is given here.

Legend:
[1] = Inhibition of platelet CRTAase assessed as inhibition of platelet aggregation at 50 uM by spectrophotometry
[2] = tested on: Rattus norvegicus; assay: Antiplatelet activity in arachidonic acid-induced platelet aggregation po dosed Sprague-Dawley rat blood compound treated for 24 hrs before ADP challenge by aggregometry method; assay type: functional, organism-based
[3] = (§1) Antiplatelet activity in human platelet rich plasma assessed as inhibition of arachidonic acid-induced aggregation preincubated for 10 mins before arachidonic acid challenge by aggregometry method; assay type: functional, cell-free
[4] = tested on: Platelet; assay: as §1; assay type: functional, cell-free
[5] = tested on: Rattus norvegicus; assay: Inhibition of LPS-induced tissue factor expression in Sprague-Dawley rat PBMC at 160.2 umol/kg, po for 5 days by ELISA relative to control; assay type: functional
[6] = tested on: Rattus norvegicus; assay: Inhibition of TxB2 production in arachidonic acid-stimulated blood of Sprague-Dawley rat assessed per mg of protein at 160.2 umol/kg, po, measured after 24 hrs by ELISA (reference value: 85.4 pg/mg of protein); assay type: functional
[7] = tested on: Rattus norvegicus; assay: Antiplatelet activity in ADP-induced platelet aggregation po dosed Sprague-Dawley rat blood compound treated for 24 hrs before ADP challenge by aggregometry method; assay type: functional, organism-based
[8] = tested on: Rattus norvegicus; assay: Inhibition of COX1 activity in TMPD/arachidonic acid-stimulated blood of Sprague-Dawley rat at 160.2 umol/kg, po after 24 hrs by ELISA relative to control; assay type: functional
[9] = (§2) Antiplatelet activity in human platelet rich plasma assessed as inhibition of ADP-induced aggregation compound preincubated for 10 mins before ADP addition by aggregometry method; assay type: functional, cell-free
[10] = tested on: Platelet; assay: as §2; assay type: functional, cell-free
[11] = tested on: Platelet; assay: Enhancement of nitric oxide production in human platelet rich plasma at 100 uM preincubated for 10 mins before ADP addition by DCFH-DA-based flow cytometry; assay type: functional, cell-free
[12] = tested on: PBMC; assay: Inhibition of LPS-induced iNOS expression in Sprague-Dawley rat PBMC at 160.2 umol/kg, po for 5 days before LPS challenge by Western blot analysis; assay type: functional, organism-based
[13] = tested on: Rattus norvegicus; assay: Inhibition of arachidonic acid-induced aggregation in Sprague-Dawley rat blood at 50.6 umol/kg, po treated for 24 hrs before arachidonic acid challenge by aggregometry method; assay type: functional
[14] = tested on: Rattus norvegicus; assay: Inhibition of ADP-induced platelet aggregation in Sprague-Dawley rat blood at 125.3 umol/kg, po treated for 24 hrs before ADP challenge by aggregometry method; assay type: functional

CC(=O)Oc1ccc2c(C)cc(=O)oc2c1C(C)=O
inhibition [1]: inactive

CC(=O)Nc1ccc2c(C)cc(=O)oc2c1
Activity [2]: Dose-dependent effect | pIC50 [3]: 4.11 | inhibition [4]: Dose-dependent effect | fold change (FC) [5]: 1.93 | inhibition [1]: Active | fold change (FC) [6]: 0.39 | Activity [7]: Dose-dependent effect | IC50 [7]: 125.3 µmol/kg | fold change (FC) [8]: 3.34 | pIC50 [9]: 3.84 | inhibition [10]: Dose-dependent effect | Activity [11]: Active | inhibition [12]: Active

CCc1c(C)c2cc(C(C)=O)c(OC(C)=O)cc2oc1=O
inhibition [1]: inactive

CCCCCCCCCCc1c(C)c2cc(OC(C)=O)ccc2[nH]c1=O
inhibition [1]: Active

CCCCCCc1c(C)c2ccc(NC(C)=O)cc2oc1=O
inhibition [1]: Active

CCc1c(C)c2ccc(OC(C)=O)c(C(C)=O)c2oc1=O
inhibition [1]: inactive

CC(=O)Oc1ccccc1C(=O)O [ASPIRIN]
pIC50 [3]: 4.10 | fold change (FC) [5]: 4.95 | fold change (FC) [6]: 0.42 | inhibition in vivo at 50.6 µmol/kg [13]: 55% | inhibition in vivo at 125.3 µmol/kg [14]: 52% | inhibition [8]: Active | inhibition [12]: inactive

CCc1c(C)c2ccc(NC(C)=O)cc2oc1=O
inhibition [1]: Active

CCCCc1c(C)c2cc(OC(C)=O)ccc2[nH]c1=O
inhibition [1]: Active

CC(=O)Oc1ccc2c(C(F)(F)F)cc(=O)[nH]c2c1
inhibition [1]: Active

CCCCCCCCCCc1c(C)c2ccc(NC(C)=O)cc2oc1=O
inhibition [1]: Active

CCCCCCCCc1c(C)c2cc(OC(C)=O)ccc2[nH]c1=O
inhibition [1]: Active

CC(=O)Nc1ccc2c(C)cc(=O)[nH]c2c1
inhibition [1]: Active

CC(=O)Nc1ccc2c(C(F)(F)F)cc(=O)oc2c1
inhibition [1]: Active

CCc1c(C)c2ccc(NC(C)=O)cc2[nH]c1=O
inhibition [1]: Active

CC(=O)Oc1cc2oc(=O)cc(C)c2cc1C(C)=O
inhibition [1]: inactive

CC(=O)Nc1ccc2c(C(F)(F)F)cc(=O)[nH]c2c1
inhibition [1]: Active

CC(=O)Oc1ccc2[nH]c(=O)cc(C(F)(F)F)c2c1
inhibition [1]: Active
